Experimental findings from US20200206198A1, “CFTR CHANNEL ACTIVATOR FOR USE IN THE TREATMENT AND/OR PREVENTION OF GLUTEN SENSITIVITY CONDITIONS” (priority 2017, published 2020) are described below.

The test has as its target T1, TG2 (Homo sapiens, UniProt P21980).
T1 construct: Immunoprecipitations of endogenous proteins were performed on 500 μg of lysates from Caco-2 cells; host or cells: Caco-2
T1 sequence (P21980 1-687): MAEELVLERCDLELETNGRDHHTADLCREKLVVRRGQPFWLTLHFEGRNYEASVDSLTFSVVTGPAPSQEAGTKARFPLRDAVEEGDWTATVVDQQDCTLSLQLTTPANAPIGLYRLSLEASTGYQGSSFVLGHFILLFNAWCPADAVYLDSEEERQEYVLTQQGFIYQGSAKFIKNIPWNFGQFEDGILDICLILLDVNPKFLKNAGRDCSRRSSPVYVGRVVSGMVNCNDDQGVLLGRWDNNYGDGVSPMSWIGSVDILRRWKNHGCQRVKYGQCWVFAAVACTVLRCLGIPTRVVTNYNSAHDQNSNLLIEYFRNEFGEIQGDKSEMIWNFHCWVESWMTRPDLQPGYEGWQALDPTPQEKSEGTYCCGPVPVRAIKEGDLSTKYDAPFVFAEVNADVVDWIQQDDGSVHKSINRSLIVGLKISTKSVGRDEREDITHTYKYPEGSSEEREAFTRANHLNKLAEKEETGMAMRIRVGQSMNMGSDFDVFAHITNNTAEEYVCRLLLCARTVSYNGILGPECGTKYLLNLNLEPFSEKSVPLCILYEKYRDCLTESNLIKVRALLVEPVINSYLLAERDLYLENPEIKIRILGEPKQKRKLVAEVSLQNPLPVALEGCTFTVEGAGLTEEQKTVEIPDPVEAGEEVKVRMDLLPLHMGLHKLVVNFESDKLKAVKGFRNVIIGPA
As to the kind of experiment: TG2 interaction and TG2 activity in Caco-2 cells. The format is cell-based. The method, then:
Human colon adenocarcinoma-derived Caco-2 and T84 cells were obtained from the ATCC. Cells were maintained in T25 flask in Modified Eagle Medium (MEM) for Caco-2, or Ham's F12+DMEM (1:1) for T84, supplemented with 10% fetal bovine serum (FBS), 2 mM Glutamine+1% Non Essential Amino Acids (NEAA) and the antibiotics penicillin\streptomycin (100 units/ml) (all reagents from Lonza) (Luciani, A., et al. 2010. Cells were grown in Transwells (Corning, 3470 or 3460) under the normal condition (Luciani, A., et al. 2012). Briefly, 8×10^4 or 5×10^5 cells were seeded in 6.5-mm diameter or 12-mm diameter, respectively, and grown until the RT reached 800 to 1,200 Ω·cm2. Transwells with a pore size of 0.4 μm were used. Medium in both the apical and basolateral chambers was changed every other day. Cells were treated with 20 μg/ml of either α-gliadin peptide P31-43 or […] or scrambled PGAV or modified P31-43 either biotin-tagged or not, for different time point (from 1 h short challenge up to 24 h). Cells were also treated with 50 or 100 μg/ml of P57-68 or PGAV peptides for 3 h. Caco-2 or T84 cells were also treated with: CFTR potentiators VX-770 (10 μM) or VX-532 (20 μM) (Selleck chemicals) or Genistein (10 μM) (Sigma-Aldrich) or in presence or absence of CFTR inhibitor172 (CFTRinh172, 20 μM) or 3-methyl-adenine (3-MA, 20 μM) (Calbiochem), Z-DON (20 nM, Zedira) or BAPTA-AM (10 μM, Calbiochem).
The whole lysate or membrane fraction proteins of cell lines and mice intestine homogenates were obtained from treated and untreated cells or mice as described. The equal amount of protein were resolved by SDS-PAGE gel and blotted with antibodies against: SQSTM1, (Sigma Aldrich, 108k4767) 1:1000, PPARγ (Santa Cruz Biotechnology, sc7273) 1:500, BECN1 (Abcam, ab58878) 1:1000, CFTR clone M3A7 (Abcam, ab4067) 1:500, phospho-ERK1/2 (php42/44, Cell Signaling Technology, #91101) 1:1000, UVRAG (Santa Cruz Biotechnology sc8215) 1:1000, NHERF-1 (BD, 611161) 1:1000, EZRIN (BD, 610603) 1:1000, hVps34 (SigmaV9764) 1:300, biotin (Abcam, ab1227) 1:2000, PKAr2a (BD, 610625) 1:500, Ubiquitin (Cell Signaling clone P4D1, #3936) 1:1000, CHIP (Calbiochem PC711) 1:500, Caspase-1 p10 (M-20) (Santa Cruz Biotechnology, sc-514) 1:200, NLRP3 (Abcam, ab4207), 1:500, IDO1 (monoclonal; cv152) 1:1000^[80], used as primary antibodies. Normalization was performed by probing the membrane with anti-β-actin (Cell Signaling, #4970) 1:1000, anti-Gapdh (Sigma-Aldrich, G8795) 1:1000 and anti-flottilin (Abcam ab15148) 1:1000 antibodies. Immunoprecipitations of endogenous proteins were performed on 500 μg of lysates from Caco-2 cells. The proteins were incubated for 12-18 h at 4° C. with 10 ug\ml of specific antibody followed by the addition of Protein A/G-agarose beads for 4 h at 4° C. The beads were then washed three times with lysis buffer and Laemmli's sample buffer was added to the samples. The membranes were then blotted with: CFTR clone CF3 (Abcam, ab2784) 1:1000, TG2 (clone CUB7402; NeoMarkers) 1:1000, CHIP (Calbiochem PC711) 1:500, Ubiquitin (Cell Signaling clone P4D1 3936), isopeptide (Abcam 422) 1:1000, PKAR2 (BD 610625) 1:500.
For detection of complex with biotnylated-P31-43 or immune-complex of glutamime-lysine bonds, the beads were resolved in non-reducing and non-denaturating conditions, and then blotted with Streptavidin-HRP (Sigma 52438) 1:3000 or anti-biotin (Abcam ab2103) 1:2500 and anti-isopeptide (Abcam 422) 1:1000.
TG2 enzymatic activity in Caco-2, treated as described above, was detected: 1) by incubating unfixed sections with biotin-mono-dansylcadaverine (MDC, 10 mM, Molecular Probe) for 1 h at room temperature and then stained with Alexa-fluor488-Streptavidin, as previously described (JI2008/2009) or 2) or by incorporation of 5(biotinamido)pentylamines (BAP) into protein substrates. For BAP-incorporation, 2 mM BAP (Soltec Ventures, B110) were directly added into the medium together with the indicated treatments. […]

As for `CC(C)(C)c1cc(C(C)(C)C)c(NC(=O)c2c[nH]c3ccccc3c2=O)cc1O` [VX-770, N-(2,4-di-tert-butyl-5-hydroxyphenyl)-4-oxo-1,4-dihydroquinoline-3-carboxamide], the “effect on P31-43-induced interaction of TG2 and CFTR” value (Caco-2 cells) is “abolished the P31-43-induced interaction of TG2 and CFTR”. In addition, where the note is “Caco-2 cells preincubated with VX-770”, the “effect on P31-43-induced TG2 activation” value is “negated the capability of P31-43 5 to induce TG2 activation”. In addition, the “impact on TG2-mediated transamidation reactions” value (Caco-2 cells pulsed with Ca2+) was “has no impact on TG2mediated transamidation reactions”.
Consider “α-gliadin peptide LGQQQPFPPQQPY (SEQ ID 1), induces an enterocyte stress response (P31-43 sequence of alpha-gliadin)”, for which, where the note is “Caco-2 cells”, the “TG2-mediated glutamine-lysine bonds in CFTR immunoprecipitates” value is on record as “induced the formation of TG2-mediated glutamime-lysine bonds”. The “covalent interaction with TG2” value (Caco-2 cells, shortly upon challenge) is given as “covalently interacted with TG2”. Also, the “interaction between TG2 and CFTR by co-immunoprecipitation” value (cells incubated with peptide) was “stimulated the interaction between TG2 and CFTR”.
